Source: article PMC8583417, “Evaluation of the Antimicrobial Efficacy of N-Acetyl-L-Cysteine, Rhamnolipids, and Usnic Acid—Novel Approaches to Fight Food-Borne Pathogens” (International Journal of Molecular Sciences, 2021)
≈ marks a conversion by molar mass, not a printed value. Marks after values point to notes of the source that are not given here.

Legend:
[1] = tested on: HCAEC (primary human coronary artery endothelial cells); assay: Acute cytotoxicity, resazurin assay; assay type: cell-based; settings: 72 h
Text: (§1) To test the acute cytotoxicity of the compounds, the following cell lines were used: primary human renal tubular epithelial cells (HRTEC; Evercyte, Vienna, Austria); human keratinocytes (HaCat; Thermo Fisher Scientific, Waltham, MA, USA); human dermal fibroblasts (HDF; Merck, Kenilworth, NJ, USA); human epithelial kidney cells (HEK 293; ATCC, Manassas, VI, USA); primary human coronary artery endothelial cells (HCAEC; ATCC, Manassas, VI, USA). The cell lines were maintained in a proper cultivation medium—HaCat, HDF, and Hek 293 in DMEM; HRTEC in VCB; HCAEC in ProxUp. The cytotoxicity experiment was realized according to Tran et al.. Briefly, the cells were counted by the Cellometer Auto T4 (Nexcelom Bioscience, Lawrence, MA, USA), and the cell suspension containing a cell density of 10^5 cells/mL was split into the 96-well plate, with 100 µL per well. The plates were then incubated for 24 h at 37 °C in a humidified atmosphere of 5% CO2. Then, the plates were washed three times with PBS, and the tested natural compounds were added using binary dilution in a proper medium. After 72 h of incubation, the cell viability was tested by resazurin assay. The fluorescence was measured by a SpectraMax i3× microplate reader (San Jose, CA, USA) at a wavelength of 560 nm excitation/590 nm emission.
(§2) The cytotoxicity results are expressed as the average IC50 ± standard error of the mean (SEM). Values of IC50 were obtained by using the online tool Quest Graph IC50 Calculator (AAT Bioquest Inc., Sunnyvale, CA, USA). One-way analysis of variance (ANOVA) was used followed by Duncan’s post hoc test (p < 0.05) to show the differences between the groups. For ANOVA, the Statistica software (Tibco Software Inc., Palo Alto, CA, USA) was used in version 12.

[2] = tested on: HEK 293 (human epithelial kidney cells); assay: Acute cytotoxicity, resazurin assay; assay type: cell-based
Text: as §1, §2

[3] = tested on: HaCat (human keratinocytes); assay: Acute cytotoxicity, resazurin assay; assay type: cell-based; settings: 72 h
Text: as §1, §2

[4] = tested on: HRTEC (primary human renal tubular epithelial cells); assay: Acute cytotoxicity, resazurin assay; assay type: cell-based; settings: 72 h
Text: as §1, §2

[5] = tested on: HDF (human dermal fibroblasts); assay: Acute cytotoxicity, resazurin assay; assay type: cell-based; settings: 72 h
Text: as §1, §2

[6] = tested on: S. aureus 1241; assay: CLSM analysis, biofilm prevention; assay type: cell-based, Staphylococcus aureus; settings: for Thickness (µm) MICBM80 / Thickness (µm) subCBM80: 24 h exposure; for Thickness (µm) MICBM80: substance at its MICBM80, mean ± SD; for Thickness (µm) subCBM80: substance at subinhibitory concentration, mean ± SD
Procedure: (§3) Biofilm prevention and removal analyses were performed using previously determined minimum inhibitory and subinhibitory concentrations for metabolic activity (MICBM80, subCBM80; MICMPB80, subCMPB80) of NAC, RLs, and UA specific for each tested strain. Selected concentrations were used to evaluate the inhibition of biofilm formation (biofilm prevention) and the reduction in previously formed biofilms (biofilm removal) for the same set of microorganisms, with the exception of S. Infantis, which was excluded from the analysis due to its inability to form biofilm in the selected microtiter plate. Biofilm prevention and removal were observed using CLSM with specific staining to distinguish between live and membrane-compromised cells. Images were analyzed to evaluate (i). the total volume of the biomass, (ii). ratios of live and membrane-compromised cells, and (iii). to calculate biofilm volume reduction for individual organisms after the respective treatment types. The total biofilm volume was normalized by the area of the well and expressed as an average biofilm thickness. Complete data are provided in Supplementary Materials (Tables S1–S8).
(§4) For both inhibition and reduction of biofilms, overnight cultures from BHI were diluted in TSB + 1% Glc to reach an absorbance of 0.08 to 0.1 at 625 nm. The inoculum (150 µL) was transferred into wells of the 96-well flat-bottomed Ibidiμ-Plate (Ibidi, Gräfelfing, Germany) and mixed with 150 µL of each of the three tested substances in technical quadruplicates, followed by incubation at 37 °C for 24 h. Simultaneously, the prepared bacterial suspensions were inoculated to an additional microtiter plate (200 µL) and allowed to form biofilm overnight (18 h at 37 °C). After the incubation, the content of the well was drained off, and 200 µL of each of the three tested substances was added to the plate, which was then incubated for an additional 20 h. The used concentrations of the substances represented the subinhibitory and minimum inhibitory concentrations for metabolic activity (subCBM80, MICBM80; subCMPB80, MICMPB80). Both setups contained a positive control of the bacterial growth (inoculum mixed with sterile TSB + 1% Glc medium) and a control monitoring microbial contamination (sterile medium). Non-treated wells were used as a positive control for comparison between non-treated and treated biofilm mass.
(§5) Prior to the imaging, the wells were stained with the LIVE/DEAD® BacLight™ Bacterial Viability Kit (Thermo Fisher Scientific, MA, USA) following the manufacturer’s guidelines and Drago et al.. Briefly, equal volumes of SYTO® 9 and propidium iodide were combined with the sterile distilled water to reach a final concentration of […]. The biofilm mass was stained using 300 µL of the staining solution per well followed by incubation at 37 °C in the dark for 15 min. Stained wells were washed once with sterile distilled water, which was then added to each well (300 µL). Images were acquired with an inverted Leica SP5 CLSM using a 1.25× dry objective (WD 3.7 mm, Z-resolution 27 µm, up to 24 Z-stacks per well) to visualize an entire well. Samples were kept at the cultivation conditions (37 °C, 5% CO2, 90% humidity) with an OkoLabs stage top environmental chamber (Oko Labs, PA, USA). Fluorophore excitation lasers and emission bandwidths were as follows: SYTO® 9 (ex/em 485/498 nm) 488 nm excitation, 495 to 550 nm emission collection; propidium iodide (ex/em 535/617 nm) 561 nm excitation, 595 to 650 nm emission collection. The laser beam scanned the visual field at a frequency of 600 Hz. The wells were captured in snapshots of 1024 × 1024 pixels representing the area of 153.76 mm^2.
(§6) All collected images were statistically evaluated to quantify biovolume utilizing the surface estimation procedure described in Parker et al.. […]

[7] = tested on: S. aureus 816; assay: CLSM analysis, biofilm prevention; assay type: cell-based, Staphylococcus aureus; settings: for Thickness (µm) MICBM80 / Thickness (µm) subCBM80: 24 h exposure; for Thickness (µm) MICBM80: substance at its MICBM80, mean ± SD; for Thickness (µm) subCBM80: substance at subinhibitory concentration, mean ± SD
Procedure: as §3, §4, §5, §6

[8] = 24 h, MIC and subinhibitory concentration

CC(=O)c1c(O)c(C)c(O)c2c1OC1=CC(=O)C(C(C)=O)C(=O)C12C (single isomer, unassigned; (+)) [UA, (+)-usnic acid]
IC50 (µg/mL) ([1]; HCAEC, cytotoxicity, resazurin, average of 3 repetitions with SEM): 0.03 ± 0.01 ^i µg/mL
IC50 (µg/mL) ([2]; HEK 293, cytotoxicity, 72 h, resazurin, average of 3 repetitions with SEM): 2.75 ± 0.22 ^g µg/mL
IC50 (µg/mL) ([3]; HaCat, cytotoxicity, resazurin, average of 3 repetitions with SEM): 0.59 ± 0.14 ^h µg/mL
IC50 (µg/mL) ([4]; HRTEC, cytotoxicity, resazurin, average of 3 repetitions with SEM): 3.06 ± 0.17 ^g µg/mL
IC50 (µg/mL) ([5]; HDF, cytotoxicity, resazurin, average of 3 repetitions with SEM): 4.35 ± 0.41 ^f µg/mL
Thickness (µm) MICBM80 [6]: 367 ± 40.5 µm
Thickness (µm) subCBM80 [6]: 392 ± 21.7 µm
proportion of membrane-compromised cells [7, 8]: up to 15%
Thickness (µm) MICBM80 [7]: 237 ± 41.9 µm
Thickness (µm) subCBM80 [7]: 270 ± 21 µm

CC(=O)N[C@@H](CS)C(=O)O [NAC, N-Acetyl-L-cysteine]
IC50 ([1]; Homo sapiens, Endothelial cell): 1830 ± 90 µg/mL (≈ 11.2 mM)
IC50 ([2]; Homo sapiens, HEK293, 72 h): 1940 ± 250 µg/mL (≈ 11.9 mM)
IC50 ([3]; Homo sapiens, HaCaT): 4020 ± 470 µg/mL (≈ 24.6 mM)
IC50 ([4]; Homo sapiens, Epithelial cell): 1570 ± 70 µg/mL (≈ 9.62 mM)
IC50 ([5]; Homo sapiens, Fibroblast): 460 ± 20 µg/mL (≈ 2.82 mM)
proportion of membrane-compromised cells [6, 8]: up to 25%
Thickness (µm) MICBM80 [6]: 236 ± 50.5 µm
Thickness (µm) subCBM80 [6]: 212 ± 16.1 µm
Thickness (µm) MICBM80 [7]: 104 ± 67.8 µm
Thickness (µm) subCBM80 [7]: 181 ± 57.7 µm
